# Results published in patent publication EP4745135A1 (Gluetacs Therapeutics (Shanghai) Co., Ltd., priority 2023, dated 2025).
# Key:
# CK1α = target: T1, CK1α (Homo sapiens, UniProt P48729+Q96SW2); assay: Western blot, degradation of substrate protein in hPBMCs; format: cell-based; conditions: Western blot, 24 hours of compound treatment, compounds tested at 50 nM and 500 nM (concentration for the table not stated)
# T1 construct: effects of the compounds of the present disclosure on the expression of target proteins in cells; endogenous in cells; host or cells: human PBMCs (Milecell Biotechnologies)
# T1 sequence (P48729 whole entry): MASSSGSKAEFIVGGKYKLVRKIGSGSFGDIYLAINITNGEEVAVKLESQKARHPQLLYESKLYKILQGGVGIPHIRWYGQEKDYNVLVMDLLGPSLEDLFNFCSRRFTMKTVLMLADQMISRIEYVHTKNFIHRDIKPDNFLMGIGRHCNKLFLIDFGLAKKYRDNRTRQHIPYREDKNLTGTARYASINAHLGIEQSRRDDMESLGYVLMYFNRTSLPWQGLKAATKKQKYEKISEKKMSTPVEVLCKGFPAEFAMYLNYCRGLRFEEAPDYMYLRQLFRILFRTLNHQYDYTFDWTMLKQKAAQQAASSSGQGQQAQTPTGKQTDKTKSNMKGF
# T1 sequence (Q96SW2 whole entry): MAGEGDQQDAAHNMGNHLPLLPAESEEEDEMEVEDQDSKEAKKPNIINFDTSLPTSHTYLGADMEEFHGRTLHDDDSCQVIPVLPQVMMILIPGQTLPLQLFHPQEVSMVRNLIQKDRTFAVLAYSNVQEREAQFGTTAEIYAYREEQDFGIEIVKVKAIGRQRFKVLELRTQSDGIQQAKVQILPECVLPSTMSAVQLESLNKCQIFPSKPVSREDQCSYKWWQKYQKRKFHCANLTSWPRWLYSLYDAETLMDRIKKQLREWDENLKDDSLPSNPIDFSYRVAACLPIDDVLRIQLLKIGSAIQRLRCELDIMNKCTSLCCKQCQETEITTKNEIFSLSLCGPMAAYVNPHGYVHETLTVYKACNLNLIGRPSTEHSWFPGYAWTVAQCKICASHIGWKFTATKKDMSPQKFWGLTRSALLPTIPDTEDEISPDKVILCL
# T1 sequence (Q16531 whole entry partner): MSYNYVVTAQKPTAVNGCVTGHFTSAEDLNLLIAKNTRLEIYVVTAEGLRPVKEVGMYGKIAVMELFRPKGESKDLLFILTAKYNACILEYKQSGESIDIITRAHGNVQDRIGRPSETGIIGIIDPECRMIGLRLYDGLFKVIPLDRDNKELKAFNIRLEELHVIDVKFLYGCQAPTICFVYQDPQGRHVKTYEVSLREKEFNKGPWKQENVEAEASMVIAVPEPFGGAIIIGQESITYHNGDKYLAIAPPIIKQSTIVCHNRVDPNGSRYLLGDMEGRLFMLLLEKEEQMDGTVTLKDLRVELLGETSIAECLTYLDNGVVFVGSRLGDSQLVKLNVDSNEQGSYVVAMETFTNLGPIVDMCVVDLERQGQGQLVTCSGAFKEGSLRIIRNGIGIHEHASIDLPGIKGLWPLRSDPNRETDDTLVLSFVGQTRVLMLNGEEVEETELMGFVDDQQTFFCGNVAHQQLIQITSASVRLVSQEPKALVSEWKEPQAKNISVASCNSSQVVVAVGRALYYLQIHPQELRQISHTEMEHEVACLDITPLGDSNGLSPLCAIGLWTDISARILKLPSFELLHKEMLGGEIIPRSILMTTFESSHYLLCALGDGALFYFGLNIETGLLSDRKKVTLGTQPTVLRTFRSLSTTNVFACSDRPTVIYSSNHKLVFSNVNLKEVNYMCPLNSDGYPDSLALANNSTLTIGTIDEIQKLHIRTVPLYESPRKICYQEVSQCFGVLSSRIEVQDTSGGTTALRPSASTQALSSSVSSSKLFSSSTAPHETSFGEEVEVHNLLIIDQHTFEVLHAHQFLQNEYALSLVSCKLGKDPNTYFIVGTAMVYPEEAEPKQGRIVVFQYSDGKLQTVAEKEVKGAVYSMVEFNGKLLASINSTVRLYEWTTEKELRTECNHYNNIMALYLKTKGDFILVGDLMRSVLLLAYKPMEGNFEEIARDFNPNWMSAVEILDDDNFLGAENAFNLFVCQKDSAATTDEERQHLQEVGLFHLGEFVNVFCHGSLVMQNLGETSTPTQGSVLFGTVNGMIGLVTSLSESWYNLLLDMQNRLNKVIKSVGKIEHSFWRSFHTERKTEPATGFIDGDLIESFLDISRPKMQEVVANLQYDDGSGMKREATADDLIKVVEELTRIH
# IKZF1 = target: T2, IKZF1 (Homo sapiens, UniProt Q13422+Q96SW2); assay: as above; format: cell-based; conditions: Western blot, 24 hours of compound treatment, compounds tested at 50 nM and 500 nM (concentration for the table not stated)
# T2 construct: effects of the compounds of the present disclosure on the expression of target proteins in cells; endogenous in cells; host or cells: human PBMCs (Milecell Biotechnologies)
# T2 sequence (Q13422 whole entry): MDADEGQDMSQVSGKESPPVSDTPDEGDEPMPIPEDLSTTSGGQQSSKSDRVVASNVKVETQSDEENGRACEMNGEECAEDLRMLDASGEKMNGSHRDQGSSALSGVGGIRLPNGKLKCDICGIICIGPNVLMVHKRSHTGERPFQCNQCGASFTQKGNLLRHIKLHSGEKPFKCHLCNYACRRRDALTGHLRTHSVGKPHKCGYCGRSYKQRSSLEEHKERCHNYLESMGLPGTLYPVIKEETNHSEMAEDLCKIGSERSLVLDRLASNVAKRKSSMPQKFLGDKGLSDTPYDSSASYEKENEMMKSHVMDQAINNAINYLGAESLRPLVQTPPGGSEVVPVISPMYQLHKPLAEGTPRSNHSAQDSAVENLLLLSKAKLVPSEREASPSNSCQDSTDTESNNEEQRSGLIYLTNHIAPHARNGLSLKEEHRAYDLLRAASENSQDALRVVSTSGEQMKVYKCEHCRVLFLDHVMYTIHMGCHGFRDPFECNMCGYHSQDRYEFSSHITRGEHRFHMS
# T2 sequence (Q96SW2 whole entry): as the sequence (Q96SW2 whole entry) above
# T2 sequence (Q16531 whole entry partner): as the sequence (Q16531 whole entry partner) above
# IKZF2 = target: T3, IKZF2 (Homo sapiens, UniProt Q96SW2+Q9UKS7); assay: as above; format: cell-based; conditions: Western blot, 24 hours of compound treatment, compounds tested at 50 nM and 500 nM (concentration for the table not stated)
# T3 construct: effects of the compounds of the present disclosure on the expression of target proteins in cells; endogenous in cells; host or cells: human PBMCs (Milecell Biotechnologies)
# T3 sequence (Q9UKS7 whole entry): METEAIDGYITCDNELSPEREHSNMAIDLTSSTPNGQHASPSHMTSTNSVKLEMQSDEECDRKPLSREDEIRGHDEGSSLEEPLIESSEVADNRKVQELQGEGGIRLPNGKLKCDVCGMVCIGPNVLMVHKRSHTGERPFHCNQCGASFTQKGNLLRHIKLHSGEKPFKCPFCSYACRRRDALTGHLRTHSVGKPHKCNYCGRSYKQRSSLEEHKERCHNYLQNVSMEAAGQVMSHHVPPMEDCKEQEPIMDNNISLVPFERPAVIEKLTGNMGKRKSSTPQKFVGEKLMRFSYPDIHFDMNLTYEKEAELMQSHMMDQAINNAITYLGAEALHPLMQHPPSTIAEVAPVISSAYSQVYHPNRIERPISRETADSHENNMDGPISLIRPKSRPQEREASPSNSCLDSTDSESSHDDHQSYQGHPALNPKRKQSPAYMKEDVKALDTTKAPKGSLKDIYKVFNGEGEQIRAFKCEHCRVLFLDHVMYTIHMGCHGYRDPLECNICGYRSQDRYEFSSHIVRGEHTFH
# T3 sequence (Q96SW2 whole entry): as the sequence (Q96SW2 whole entry) above
# T3 sequence (Q16531 whole entry partner): as the sequence (Q16531 whole entry partner) above
# IKZF3 = target: T4, IKZF3 (Homo sapiens, UniProt Q96SW2+Q9UKT9); assay: as above; format: cell-based; conditions: Western blot, 24 hours of compound treatment, compounds tested at 50 nM and 500 nM (concentration for the table not stated)
# T4 construct: effects of the compounds of the present disclosure on the expression of target proteins in cells; endogenous in cells; host or cells: human PBMCs (Milecell Biotechnologies)
# T4 sequence (Q9UKT9 whole entry): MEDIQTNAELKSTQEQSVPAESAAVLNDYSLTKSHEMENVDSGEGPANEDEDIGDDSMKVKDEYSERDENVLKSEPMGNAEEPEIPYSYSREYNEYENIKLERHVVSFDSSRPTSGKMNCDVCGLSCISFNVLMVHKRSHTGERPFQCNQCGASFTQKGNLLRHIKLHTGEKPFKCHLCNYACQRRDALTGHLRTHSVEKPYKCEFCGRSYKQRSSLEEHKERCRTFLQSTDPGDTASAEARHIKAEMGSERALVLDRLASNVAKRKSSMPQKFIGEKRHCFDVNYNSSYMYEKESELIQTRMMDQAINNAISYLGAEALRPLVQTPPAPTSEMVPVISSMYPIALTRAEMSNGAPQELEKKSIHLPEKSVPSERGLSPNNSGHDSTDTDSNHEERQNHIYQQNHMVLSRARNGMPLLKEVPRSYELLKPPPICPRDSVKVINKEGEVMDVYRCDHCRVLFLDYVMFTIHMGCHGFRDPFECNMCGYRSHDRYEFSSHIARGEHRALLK
# T4 sequence (Q96SW2 whole entry): as the sequence (Q96SW2 whole entry) above
# T4 sequence (Q16531 whole entry partner): as the sequence (Q16531 whole entry partner) above
# WEE1 = target: T5, WEE1 (Homo sapiens, UniProt P30291+Q96SW2); assay: as above; format: cell-based; conditions: Western blot, 24 hours of compound treatment, compounds tested at 50 nM and 500 nM (concentration for the table not stated)
# T5 construct: effects of the compounds of the present disclosure on the expression of target proteins in cells; endogenous in cells; host or cells: human PBMCs (Milecell Biotechnologies)
# T5 sequence (P30291 whole entry): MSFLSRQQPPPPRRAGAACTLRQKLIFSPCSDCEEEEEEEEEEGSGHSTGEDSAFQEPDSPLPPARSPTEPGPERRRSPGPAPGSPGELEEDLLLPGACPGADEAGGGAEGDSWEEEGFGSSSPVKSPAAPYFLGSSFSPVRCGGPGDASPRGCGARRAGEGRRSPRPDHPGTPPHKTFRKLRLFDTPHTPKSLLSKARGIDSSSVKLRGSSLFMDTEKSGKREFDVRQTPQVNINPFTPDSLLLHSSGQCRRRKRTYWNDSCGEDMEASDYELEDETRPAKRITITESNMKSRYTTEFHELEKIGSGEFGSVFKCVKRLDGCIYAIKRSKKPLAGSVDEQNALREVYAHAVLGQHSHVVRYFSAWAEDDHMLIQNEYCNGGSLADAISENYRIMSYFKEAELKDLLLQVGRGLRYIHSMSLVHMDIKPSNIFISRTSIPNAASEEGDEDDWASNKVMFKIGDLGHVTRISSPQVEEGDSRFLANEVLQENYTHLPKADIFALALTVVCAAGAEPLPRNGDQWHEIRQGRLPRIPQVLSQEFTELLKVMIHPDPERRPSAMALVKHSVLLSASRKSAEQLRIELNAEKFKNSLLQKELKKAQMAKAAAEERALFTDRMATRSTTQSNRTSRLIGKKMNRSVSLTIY
# T5 sequence (Q96SW2 whole entry): as the sequence (Q96SW2 whole entry) above
# T5 sequence (Q16531 whole entry partner): as the sequence (Q16531 whole entry partner) above
# GSPT1 = assay: as above; format: cell-based, Human; conditions: Western blot, 24 hours of compound treatment, compounds tested at 50 nM and 500 nM (concentration for the table not stated)
# [1] = target: T6, human Cereblon WT GST-tagged protein (Homo sapiens, UniProt Q96SW2); assay: CRBN-binding affinity, HTRF (CEREBLON BINDING kit); conditions: for inhibition at 0.5 µM: read-out: Inhibition Rate at 0.5 µM (%); for inhibition at 2 µM: read-out: Inhibition Rate at 2 µM (%)
# T6 construct: purchased CISBIO 64BDCRBNPEH
# T6 sequence (Q96SW2 whole entry): as the sequence (Q96SW2 whole entry) above
Structure (SMILES),inhibition at 0.5 µM [1] [%],inhibition at 2 µM [1] [%],CK1α substrate protein remaining % (CK1α),IKZF 1 substrate protein remaining % (IKZF1),IKZF2 substrate protein remaining % (IKZF2),IKZF3 substrate protein remaining % (IKZF3),Wee1 substrate protein remaining % (WEE1),GSPT1 substrate protein remaining % (GSPT1)
"O=C1CCC(N2Cc3c(CN4CCN(c5cnnc(Cl)c5Cl)CC4)cccc3C2=S)C(=O)N1 (stereo not shown) [GT-08815, 3-(4-((4-(5,6-dichloropyridazin-4-yl)piperazin-1-yl)methyl)-1-thioxoisoindolin-2-yl)piperidine-2,6-dione]",60 to 80,80 to 100,B (80%< substrate protein remaining %≤ 100%),B (80%< substrate protein remaining %≤ 100%),B (80%< substrate protein remaining %≤ 100%),B (80%< substrate protein remaining %≤ 100%),A (0% ≤ substrate protein remaining % ≤ 80%),B (80%< substrate protein remaining %≤ 100%)
"O=C1CCC(N2Cc3c(CN4CCN(c5noc6cc(F)ccc56)CC4)cccc3C2=S)C(=O)N1 (stereo not shown) [GT-08818, 3-(4-((4-(6-fluorobenzo[d]isoxazol-3-yl)piperazin-1-yl)methyl)-1-thioxoisoindolin-2-yl)piperidine-2,6-dione]",53 to 60,60 to 80,B (80%< substrate protein remaining %≤ 100%),B (80%< substrate protein remaining %≤ 100%),B (80%< substrate protein remaining %≤ 100%),B (80%< substrate protein remaining %≤ 100%),A (0% ≤ substrate protein remaining % ≤ 80%),A (0% ≤ substrate protein remaining % ≤ 80%)
"O=C1CCC(N2Cc3c(CN4CCN(c5noc6ccncc56)CC4)cccc3C2=S)C(=O)N1 (stereo not shown) [GT-08838, 3-(4-((4-(isoxazolo[4,5-c]pyridin-3-yl)piperazin-1-yl)methyl)-1-thioxoisoindolin-2-yl)piperidine-2,6-dione]",53 to 60,80 to 100,B (80%< substrate protein remaining %≤ 100%),B (80%< substrate protein remaining %≤ 100%),B (80%< substrate protein remaining %≤ 100%),B (80%< substrate protein remaining %≤ 100%),A (0% ≤ substrate protein remaining % ≤ 80%),A (0% ≤ substrate protein remaining % ≤ 80%)

# More lines, main results first:
inhibition at 0.5 µM [1] [%],inhibition at 2 µM [1] [%],Structure (SMILES),CK1α substrate protein remaining % (CK1α),IKZF 1 substrate protein remaining % (IKZF1),IKZF2 substrate protein remaining % (IKZF2),IKZF3 substrate protein remaining % (IKZF3),Wee1 substrate protein remaining % (WEE1),GSPT1 substrate protein remaining % (GSPT1)
60 to 80,80 to 100,"O=C1CCC(N2Cc3c(CN4CCN(c5nsc6cc(F)ccc56)CC4)cccc3C2=S)C(=O)N1 (stereo not shown) [GT-08839, 3-(4-((4-(6-fluorobenzo[d]isothiazol-3-yl)piperazin-1-yl)methyl)-1-thioxoisoindolin-2-yl)piperidine-2,6-dione]",B (80%< substrate protein remaining %≤ 100%),B (80%< substrate protein remaining %≤ 100%),B (80%< substrate protein remaining %≤ 100%),B (80%< substrate protein remaining %≤ 100%),A (0% ≤ substrate protein remaining % ≤ 80%),B (80%< substrate protein remaining %≤ 100%)
60 to 80,80 to 100,"O=C1CCC(N2Cc3c(CN4CCN(c5c[nH]c6ncccc56)CC4)cccc3C2=S)C(=O)N1 (stereo not shown) [GT-08841, 3-(4-((4-(1H-pyrrolo[2,3-b]pyridin-3-yl)piperazin-1-yl)methyl)-1-thioxoisoindolin-2-yl)piperidine-2,6-dione]",B (80%< substrate protein remaining %≤ 100%),B (80%< substrate protein remaining %≤ 100%),B (80%< substrate protein remaining %≤ 100%),B (80%< substrate protein remaining %≤ 100%),A (0% ≤ substrate protein remaining % ≤ 80%),A (0% ≤ substrate protein remaining % ≤ 80%)
